Measurements taken from US20170275344A1, “POLYPEPTIDES AND USES THEREOF AS A DRUG FOR TREATMENT OF AUTOIMMUNE DISORDERS” (Compugen Ltd., priority 2014, published 2017).
“Also recorded” adds a separate entry of the source.

Tests used:
[1] = tested on: healthy human skin transplanted onto beige-SCID mice; experiment: Humanized psoriasis model: healthy human skin xenotransplants on beige-SCID mice injected with psoriatic patients' PBMCs; format: in vivo, mouse
Description: In this model, psoriasis is induced in xenotransplants of healthy human skin transplanted onto beige severe combined immunodeficiency (SCID) mice followed by intradermal (i.d.) injection of IL-2 enriched Peripheral Blood Mononuclear Cells (PBMCs) isolated from blood of psoriasis patients (Nickoloff, 1995; Wrone-Smith, 1996 Gilhar et al., 2002, 2006, 2011). The activity of these compounds was compared to that of Enbrel, a TNF inhibitor which is an approved biological drug for treatment of psoriasis. As a control for model robustness, we used dexamethasone, a steroid with suppressive effects on inflammatory cytokines and chemokines such as TNF-alpha and interferon-gamma which cause severe psoriasis. All treatments were administered intradermally, except for dexamethasone which was given topically.
Study Protocol: A) Healthy human skin pieces with a width of 0.4 mm and surface area of 1.5×1.5 cm were provided from residual skin of routine plastic surgery procedures from the Plastic Surgery Department of the Rambam Medical Center, Israel. In addition, 20 mL blood samples were taken from psoriatic patients. B) Seventy (70) beige-severe combined immunodeficient mice (SCID) (weight˜20-25 g) were included in this study. Normal healthy human donor skin was transplanted onto the beige-SCID mice as previously described (Nickoloff et al., 1995; Wrone-Smith, 1996; Gilhar et al., 2002, 2006, 2011; Kalish et al., 2009) and the mice were divided into 7 groups. C) Peripheral Blood Mononuclear Cells (PBMCs) isolated from psoriatic patients' blood were cultured in the presence of IL-2 [Prospec, 100 U/mL of RPMI 1640 media, 10% human AB serum (Sigma, St. Louis, Mo.), 1% glutamine, 1% antibiotics (media components; Biological Industries, Kibbutz Beit Haemeck, Israel)] for 14 days, as previously described (Gilhar et al, 2002). D) Four weeks following engraftment, each mouse was injected intra-dermally (i.d.) into the grafted skin lesion, with 1×10^7 activated allogeneic enriched PBMCs from psoriatic patients (FIG. 20). Cells from different psoriasis patients were equally distributed between treatment groups so that each patient is represented in each treatment group. E) On the day of PBMCs injection into the skin grafts, mice were divided randomly into treatment groups (n=9-10 mice per group) and administration of all drugs started (FIG. 20). All tested compounds including the vehicle were given intradermally (intralesional), three times a week, except for dexamethasone which was given topically for 14 consecutive days (Table 3).
F) Twenty eight days after starting the injections and treatment, skin was harvested (FIG. 20). Grafts were analyzed for the following psoriatic parameters by histology: epidermal thickening (acanthosis), suprapapillary epidermal thinning (papillomatosis), hyperkeratosis, parakeratosis, orthokeratosis, agranulosis-hypogranulosis, appearance of neutrophils in the upper spinous layer or in the corneal cell layer—Munro microabscess, regular elongation of rete ridges, angiogenesis, edema and dilated tortuous blood vessels in the dermal papilla and mononuclear cell infiltrate in the papillary dermis. Epidermal thickness was measured as detailed below, and HLA-DR, ICAM-1, Ki-67 and immune infiltrates (anti-CD3 stain) were evaluated by immunohistochemistry (IHC).
The entire skin graft was excised and placed in 10% formal saline overnight. Then, the specimens were place in 70% ethanol and were embedded according to the standard H&E protocol. Histological assessment of the skin grafts was performed by light microscopy and evaluated by two blinded observers [the second observer evaluated random slides (about 25% of all slides) to compare the data obtained by the first observer. […] Epidermal thickness was determined with an ocular micrometer at a minimum of 50 points along the epidermis selected to represent points of maximal and minimal thickness.
Representative grafts were allocated for IHC analysis. […]

psoriasis patients = details: cited from earlier work
male DBA-1 mice = experiment: Established collagen-induced arthritis (CIA), therapeutic regimen; format: in vivo, mouse
Experimental: Bovine type II collagen (CII) (RUNMC in house production, batch 03-04-08) at a concentration of 2 mg/ml in acetic acid 0.05M was emulsified in equal volumes of Freund's complete adjuvant (2 mg/ml of Mycobacterium tuberculosis strain H37Ra; Difco, Detroit, Mich.).
On day 0, 10-12 week old male DBA-1 mice (Janvier Elevage, France) (n=95) were immunized i.d. at the base of the tail with 100 μg of bovine CII. On day 21, mice received an intraperitoneal booster injection of 50 μg of CII dissolved in phosphate buffered saline (PBS), and the onset of arthritis occurred a few days after this booster.
Joint inflammation in each paw was scored visually, using a scale of 0-2 per paw with a maximal score of 8 per animal: 0=non inflamed, 1=mild inflammation, 1.5=marked inflammation, and 2=severe inflammation. Scoring was performed three times a week.
Treatment was started in established CIA early after onset of disease (i.e. therapeutic regimen), when the macroscopic scores per animal were between 0.25 and 1.25 (on a scale of 0-8). The i.p. injections were given three times per week for two weeks, after which the study was terminated and mice were terminally bled to collect serum. Thereafter, the knee and ankle joints were collected and stored in formalin. Histology was scored for inflammation and destruction on an arbitrary scale of 0-3, for five different parameters: • Joint inflammation • Cartilage proteoglycan (PG) depletion • Chondrocyte death • Cartilage erosion • Bone erosion
1. Negative control: PBS 2. Negative control mIgG2A (Bioxcell, BE0085): 10 mg/kg 3. C1ORF32 ECD-Fc (SEQ ID NO:42): 10 mg/kg 4. C1ORF32 ECD-Fc (SEQ ID NO:42): 5 mg/kg 5. Positive control: Enbrel (Wyeth, F01421) 5 mg/kg
Joints were fixed for at least 4 days in 4% formaldehyde, decalcified in 5% formic acid, and subsequently dehydrated and embedded in paraffin. Standard frontal sections of 7 μm were mounted on SuperFrost slides (Menzel-Glaser, Braunschweig, Germany). Haematoxylin and eosin (H&E) staining was performed to study joint inflammation. The severity of inflammation in the joints was scored on a scale of 0-3 (0=no cells, 1=mild cellularity, 2=moderate cellularity, and 3=maximal cellularity). To study proteoglycan (PG) depletion from the cartilage matrix, sections were stained with safranin O (SO) followed by counterstaining with fast green. Depletion of PG was determined using an arbitrary scale of 0-3, ranging from normal, fully stained cartilage to destained cartilage, fully depleted of PGs. Chondrocyte death was scored on a scale of 0-3 ranging from no loss of chondrocyte nuclei to complete empty cartilage surface. The degree of cartilage surface erosion was scored on a scale of 0-3, ranging from no damage to complete loss of articular cartilage. Bone destruction was graded separately on a scale of 0-3, ranging from no damage to the complete loss of bone structure. Histopathological changes in the joint were scored on three semiserial sections of the joint spaced 70 μm apart. Scoring was performed in a blindfolded manner.
Statistical analysis: Disease course data was analyzed using one-way ANOVA with repeated measures, with a Bonferroni's post-test of selected pairs to determine statistical differences between C1ORF32 ECD-Fc (SEQ ID NO:42) and Enbrel treated mice, each as compared to Control Ig (IgG2a) treated group.

[2] = 28 days after start of treatment

Enbrel
Healthy Skin (number of grafts) [1, 2]: 3/9
Psoriasiform Skin (number of affected grafts, histological evaluation) [1, 2]: 6/9
Total No. of Healthy Grafts (%) [1, 2]: 33%
proliferation index (% Ki-67 positive cells) in the xenografted skin ([1]; IHC, vs vehicle treated group): trend of decrease in proliferation index
Epidermal thickness of graft ([1]; Source of graft (Patient)): 683 μm
Epidermal thickness of graft ([1]; Source of graft (Patient) B): 658 μm
Epidermal thickness of graft ([1]; Source of graft (Patient) C): 770 μm
Epidermal thickness of graft ([1]; Source of graft (Patient) D): 679 μm
Epidermal thickness of graft ([1]; Source of graft (Patient) E): 678 μm
Epidermal thickness of graft ([1]; Source of graft (Patient) G1): 830 μm
Epidermal thickness of graft ([1]; Source of graft (Patient) H): 496 μm
Epidermal thickness of graft ([1]; Source of graft (Patient) K): 296 μm
Epidermal thickness of graft ([1]; Source of graft (Patient) P): 492 μm
Epidermal thickness of grafts, Mean ([1]; mean of 9-10 mice, PBS mean 682): 620 μm
epidermal thickness compared with the vehicle-treated group ([1]; one-tailed t-Test): no substantial effect on epidermal thickness; also recorded: no significant reduction in epidermal thickness
patients achieving 75% improvement in the psoriasis area-and-severity index (PASI 75) (psoriasis patients; at week 12): Forty nine
patients achieving PASI 90 (psoriasis patients; clinical trials): 22%
bone erosions (histology) (male DBA-1 mice; 5 mg/kg, day 14): significant reduction of bone erosions
other histological parameters of inflammation and cartilage damage (male DBA-1 mice; 5 mg/kg, day 14): only a trend for protection
arthritis (macroscopic) scores (male DBA-1 mice; positive control, 5 mg/kg i.p. 3x/wk for 2 wks): not as potent in reducing the arthritis scores as expected
